This is an account of results in patent US10869899B2, “Isolated cells and populations comprising same for the treatment of CNS diseases” (Ramot at Tel-Aviv University Ltd., priority 2005, dated 2020).

In this experiment the test system is differentiated hBMSc. Description: Effect of IL-1β and cabergoline on GDNF production and secretion (ELISA). It counts as cell-based, human. To be noted: cabergoline 130 pg/ml, IL-1β 100 pg/ml, added 24 hours after initiation of differentiation, 48 hours. On the procedure:
Astrocyte differentiation: To induce astrocyte differentiation, 1×10^6 cells were cultured in […]. Cells were replaced with pre-differentiation medium for 48 hours (DMEM supplemented with SPN, 2 mM L-glutamine, 20 ng/ml human epidermal growth factor hEGF (R& D, Systems, Minneapolis, Minn.), 20 ng/ml human basic fibroblast growth factor (hbFGF) and N2 supplement (insulin 5 μg/ml, progesterone 20 nM, putrescin 100 μM, selenium 30 nM, transferrin 100 μg/ml). After 48 hours, the pre-differentiation medium was changed to differentiation medium, (DMEM supplemented with SPN, 2 mM L-glutamine, 1 mM dibutyryl cyclic AMP dbcAMP, 0.5 mM isobutylmethylxanthine IBMX (Sigma-Aldrich, St. Louis, Mo., USA), 5 ng/ml human platelet derived growth factor PDGF (peprotech), and 50 ng/ml human neuregulin 1-β1 NRG1-β1-GGF-2). […]
GDNF and BDNF analysis: At the end of the differentiating procedure described above, supernatant was collected from the plate and cells were harvested and counted. The amount of GDNF or BDNF in the cell's lysate and culture supernatants was quantified by using a GDNF or BDNF ImmunoAssay System (Promega) according to the manufacture's protocol. The absorbance at 450 nm was recorded on the Microplate Reader (BioRad Model 550) and the values were used to produce the curve of the GDNF or BDNF standard. […] ELISA results were calculated according to 10^6 cells per plate.
(An ELISA detects its analyte on a solid surface through an enzyme-linked reagent.)

On to `C=CCN1C[C@H](C(=O)N(CCCN(C)C)C(=O)NCC)C[C@@H]2c3cccc4[nH]cc(c34)C[C@H]21` [cabergoline], for which the “production and secretion of GDNF by differentiated cells following addition” value is “marked enhanced production and secretion of GDNF”.

In the case of “IL-1beta: factor known to upregulate GDNF, added to the differentiation medium”, the “production and secretion of GDNF by differentiated cells following addition” value was “marked enhanced production and secretion of GDNF”.
